Measured values as given in ChEMBL document CHEMBL5376011, “Discovery of Anti-Hypercholesterolemia Agents Targeting LXRα from Marine Microorganism-Derived Natural Products” (J Nat Prod, 2024).
The source made the active and inactive calls.

Columns and labels:
Mus musculus [1] = test: Antihypercholesterolemic activity against high cholesterol diet fed LXRalpha knockout C57BL/6J mouse assessed as reduction in serum alanine aminotransferase level at 300 microg/kg, ip administered every 2 days for 15 days; format: functional, organism-based; conditions: dose 300.0 µg/kg, time 15.0 day
Mus musculus [2] = test: Antihypercholesterolemic activity against high cholesterol diet fed LXRalpha knockout C57BL/6J mouse assessed as reduction in serum aspartate aminotransferase level at 300 microg/kg, ip administered every 2 days for 15 days; format: functional, organism-based; conditions: dose 300.0 µg/kg, time 15.0 day
Mus musculus [3] = test: Antihypercholesterolemic activity against high cholesterol diet fed C57BL/6J mouse assessed as reduction in degree of hepatic steatosis at 300 microg/kg, ip administered every 2 days for 15 days by H&E staining based analysis; format: functional, organism-based; conditions: dose 300.0 µg/kg, time 15.0 day
Mus musculus [4] = test: Antihypercholesterolemic activity against high cholesterol diet fed LXRalpha knockout C57BL/6J mouse assessed as reduction in serum total cholesterol level at 300 microg/kg, ip administered every 2 days for 15 days; format: functional, organism-based; conditions: dose 300.0 µg/kg, time 15.0 day
Mus musculus [5] = test: Antihypercholesterolemic activity against high cholesterol diet fed C57BL/6J mouse assessed as reduction in SREBP1 protein level at 300 microg/kg, ip administered every 2 days for 15 days by Western blot analysis; format: functional, organism-based; conditions: dose 300.0 µg/kg, time 15.0 day
Mus musculus [6] = test: Antihypercholesterolemic activity against high cholesterol diet fed LXRalpha knockout C57BL/6J mouse assessed as improvement in liver lipid droplet accumulation at 300 microg/kg, ip administered every 2 days for 15 days by Oil red staining based analysis; format: functional, organism-based; conditions: dose 300.0 µg/kg, time 15.0 day
Mus musculus [7] = test: Antihypercholesterolemic activity against high cholesterol diet induced C57BL/6J mouse assessed as reduction in serum alanine aminotransferase level at 300 microg/kg, ip administered every 2 days for 15 days; format: functional, organism-based; conditions: dose 300.0 µg/kg, time 15.0 day
Mus musculus [8] = test: Antihypercholesterolemic activity against high cholesterol diet fed C57BL/6J mouse assessed as reduction in FASN protein level at 300 microg/kg, ip administered every 2 days for 15 days by Western blot analysis; format: functional, organism-based; conditions: dose 300.0 µg/kg, time 15.0 day
Mus musculus [9] = test: Antihypercholesterolemic activity against high cholesterol diet fed LXRalpha knockout C57BL/6J mouse assessed as upregulation in CYP7A1 protein level at 300 microg/kg, ip administered every 2 days for 15 days by Western blot analysis; format: functional, organism-based; conditions: dose 300.0 µg/kg, time 15.0 day
HepG2 [10] = test: Improvement of lipid metabolism in palmitic acid and oleic acid induced human HepG2 cell model of hepatic steatosis assessed as reduction in triglyceride level at 25 uM preincubated with palmitic acid and oleic acid for 48 hrs followed by compound addition and measured after 24 hrs; format: functional, cell-based
Mus musculus [11] = test: Antihypercholesterolemic activity against high cholesterol diet fed C57BL/6J mouse assessed as improvement in hepatocyte degeneration at 300 microg/kg, ip administered every 2 days for 15 days by H&E staining based analysis; format: functional, organism-based; conditions: dose 300.0 µg/kg, time 15.0 day
Mus musculus [12] = test: Antihypercholesterolemic activity against high cholesterol diet fed LXRalpha knockout C57BL/6J mouse assessed as improvement in liver lipid droplet accumulation at 300 microg/kg, ip administered every 2 days for 15 days by H&E staining based analysis; format: functional, organism-based; conditions: dose 300.0 µg/kg, time 15.0 day
Mus musculus [13] = test: Antihypercholesterolemic activity against high cholesterol diet fed LXRalpha knockout C57BL/6J mouse assessed as upregulation in ABCA1 protein level at 300 microg/kg, ip administered every 2 days for 15 days by Western blot analysis; format: functional, organism-based; conditions: dose 300.0 µg/kg, time 15.0 day
[14] = biological target: T1, Oxysterols receptor LXR-alpha (Homo sapiens) (UniProt Q13133); test: Agonist activity at LXRalpha in human HepG2 cells assessed as upregulation of ABCA1 protein expression level at 25 uM incubated for 24 hrs by Western blot analysis; format: cell-based; conditions: filed as agonist
T1 sequence (whole entry): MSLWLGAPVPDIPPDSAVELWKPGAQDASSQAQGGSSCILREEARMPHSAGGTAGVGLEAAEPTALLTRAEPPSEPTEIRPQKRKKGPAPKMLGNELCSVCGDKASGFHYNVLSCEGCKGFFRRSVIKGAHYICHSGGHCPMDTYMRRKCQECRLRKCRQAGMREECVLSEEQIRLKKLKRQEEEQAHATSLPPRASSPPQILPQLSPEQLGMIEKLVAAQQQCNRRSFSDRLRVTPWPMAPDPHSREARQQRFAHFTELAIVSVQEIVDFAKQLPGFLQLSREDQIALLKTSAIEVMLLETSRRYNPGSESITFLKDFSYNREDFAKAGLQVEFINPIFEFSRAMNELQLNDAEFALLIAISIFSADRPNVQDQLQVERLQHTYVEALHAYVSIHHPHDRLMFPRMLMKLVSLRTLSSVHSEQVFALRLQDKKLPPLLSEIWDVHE

HepG2 [15] = test: Effect on LXRbeta mRNA expression in human HepG2 cells at 25 uM incubated for 24 hrs by RT-qPCR analysis; format: functional, cell-based
[16] = biological target: T2, Oxysterols receptor LXR-alpha (Homo sapiens, UniProt Q13133); test: Binding affinity to full length human LXRalpha assessed as dissociation constant by SPR analysis
T2 sequence (Q13133 whole entry): T1 sequence (whole entry)

Mus musculus [17] = test: Antihypercholesterolemic activity against high cholesterol diet fed LXRalpha knockout C57BL/6J mouse assessed as improvement in hepatic steatosis at 300 microg/kg, ip administered every 2 days for 15 days by Oil red staining based analysis; format: functional, organism-based; conditions: dose 300.0 µg/kg, time 15.0 day
[18] = Cytotoxicity against human HepG2 cells assessed as reduction in cell viability incubated for 24 hrs by CCK8 assay; format: toxicity, cell-based
Mus musculus [19] = test: Antihypercholesterolemic activity against high cholesterol diet fed LXRalpha knockout C57BL/6J mouse assessed as reduction in serum triglycerides level at 300 microg/kg, ip administered every 2 days for 15 days; format: functional, organism-based; conditions: dose 300.0 µg/kg, time 15.0 day
Mus musculus [20] = test: Antihypercholesterolemic activity against high cholesterol diet fed C57BL/6J mouse assessed as reduction of fine vacuoles in the cytoplasm at 300 microg/kg, ip administered every 2 days for 15 days by Oil red staining based analysis; format: functional, organism-based; conditions: dose 300.0 µg/kg, time 15.0 day
[21] = biological target: T1, Oxysterols receptor LXR-alpha (Homo sapiens); test: Agonist activity at LXRalpha in human HepG2 cells assessed as upregulation of ABCA1 mRNA expression by measuring fold change at 25 uM incubated for 24 hrs by RT-qPCR analysis; format: cell-based; conditions: filed as agonist
Mus musculus [22] = test: Antihypercholesterolemic activity against high cholesterol diet fed LXRalpha knockout C57BL/6J mouse assessed as reduction in serum high density lipoprotein cholesterol level at 300 microg/kg, ip administered every 2 days for 15 days; format: functional, organism-based; conditions: dose 300.0 µg/kg, time 15.0 day

COc1ccc2c3c([nH]c2c1)[C@H](C=C(C)C)N1C(=O)[C@@H]2CCCN2C(=O)[C@]1(O)[C@H]3O
> 50000 nM: IC50 at 24 h [18]
inactive: Activity (Mus musculus [1]) | Activity (Mus musculus [2]) | Activity (Mus musculus [4]) | Activity (Mus musculus [9]) | Activity (Mus musculus [13]) | Activity (HepG2 [15]) | Activity (Mus musculus [19]) | Activity (Mus musculus [22])
2.13: fold change (FC) [21]
5.6 nM: Kd [16]
active: Activity (Mus musculus [3]) | Activity (Mus musculus [5]) | Activity (Mus musculus [6]) | Activity (Mus musculus [7]) | Activity (Mus musculus [8]) | Activity (HepG2 [10]) | Activity (Mus musculus [11]) | Activity (Mus musculus [12]) | Activity [14] | Activity (Mus musculus [17]) | Activity (Mus musculus [20])
